Experimental findings from US9884854B2, “N-[(pyrimidinylamino)propanyl]-and N[(pyrazinylamino)proppanyl]arylcarboxamides” (Boehringer Ingelheim International GmbH, priority 2016, dated 2018) are described below.

This experiment concerns the target T1, human Orexin 1 receptor (Homo sapiens, UniProt O43613).
T1 construct: stably expressing the full-length human Orexin 1 receptor and the aequorin photoprotein; expressed in transfected cells; host or cells: CHO-K1 (CHO-K1/hOx1), co-expressing aequorin
T1 sequence (O43613 1-425): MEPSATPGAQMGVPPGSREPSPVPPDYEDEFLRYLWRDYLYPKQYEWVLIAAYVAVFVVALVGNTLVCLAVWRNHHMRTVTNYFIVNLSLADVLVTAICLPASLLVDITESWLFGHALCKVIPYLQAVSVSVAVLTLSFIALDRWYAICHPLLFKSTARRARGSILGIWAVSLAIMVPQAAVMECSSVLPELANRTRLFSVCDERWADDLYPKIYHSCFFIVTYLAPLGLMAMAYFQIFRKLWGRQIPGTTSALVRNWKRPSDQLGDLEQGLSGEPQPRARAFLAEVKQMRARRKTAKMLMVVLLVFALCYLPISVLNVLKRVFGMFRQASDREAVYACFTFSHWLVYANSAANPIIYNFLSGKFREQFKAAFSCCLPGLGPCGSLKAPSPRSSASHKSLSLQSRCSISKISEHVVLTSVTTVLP
The experiment is described as follows: Assay A: OX1R IP1 (in vitro OX1R potency). The class given is cell-based. The following applies: for Kb: 50 nM Orexin A concentration. The text has this: Activation of the orexin receptors expressed in cell lines results in an increase in intracellular IP3 concentration. IP1, a downstream metabolite of IP3, accumulates in cells following receptor activation and is stable in the presence of LiCl. Using Homogeneous Time-Resolved Fluorescence technology with Lumi4-Tb cryptate (commercially available from Cisbio Bioassay.) and a suitable fluorescence plate reader. […] This technique is used to characterize pharmacological modification of the orexin receptors.
A. In Vitro Testing of OX1R Potency: OX1R IP1
IP1 measurements are performed in CHO-K1 cells stably expressing the full-length human Orexin 1 receptor and the aequorin photoprotein. Cells are cultivated in Ham's nutrient mixture F12 medium with 10% fetal calf serum, in a 37° C., 95% humidity and 5% CO2 incubator. The CHO-K1/hOx1 cell mass is expanded to larger cell numbers. The cells are obtained as frozen cells in cryo-vials and stored until use at −150° C. […] In preparation for the assay, 24 hours before the assay, the cells are thawed at 37° C. and immediately diluted with cell culture medium. After centrifugation, the cell pellet is re-suspended in medium and then distributed into the assay plates with a density of 10000 cells/25 μL per well. The plates are incubated for one hour at room temperature to reduce edge effects before they are incubated for 24 hours at 37° C./5% CO2. Compounds are prepared by an 8-point serial dilution in DMSO and a final dilution step into assay buffer (HBSS with 20 mM HEPES, 0.1% BSA and 50 mM LiCl, pH 7.4) to ensure a final DMSO concentration of 1% in the assay.
On the day of the assay, cells in the plate are washed twice with 60 μL assay buffer (20 μL buffer remained in the wells after washing), followed by adding 5 μL per well of compounds diluted in assay buffer. After 15 minutes of incubation at room temperature 5 μL per well of Orexin A peptide (final concentration: 0.5 nM, and/or 50 nM) dissolved in assay buffer is added to the assay plate. The assay plate is incubated for 60 minutes at 37° C. Then 5 μl per well of Anti-IP1-Cryptate Tb solution and 5 μl per well of IP1-d2 dilution are added and the plate is incubated for a further 60 minutes light protected at room temperature. […] 8-point four parametric non-linear curve fitting and determination of IC50 values and Hill slopes is performed using a regular analysis software e.g. AssayExplorer (Accelrys).
Kb values from Assay A (OX1R) and Assay B (OX2R) can then provide a selectivity ratio which is independent of the agonist (Orexin A) concentration.

Each structure is given as a SMILES string.

Take `CCN(C(=O)c1nc(C)ccc1-n1nccn1)[C@@H](C)CNc1ncc(C(F)(F)F)cn1` [Example 9]: the “OX2R Kb/OX1R Kb” value turned out to be 310 and the Kb is 106 pM. The molecule further showed a higher potency (versus Example 46 in WO2016/034882) of more than 10 fold. In addition, the higher potency entry (versus Example 73 in WO2016/034882) is reported as “approximately 3 fold”.

With `CCN(C(=O)c1cccc(F)c1-n1nccn1)[C@@H](C)CNc1ncc(C(F)(F)F)cn1` [Example 18], the “OX2R Kb/OX1R Kb” value is listed as 352 and the Kb was found to be 51.2 pM.

Take `CCN(C(=O)c1ccccc1-n1nccn1)[C@@H](C)CNc1ncc(C(F)(F)F)cn1` [Example 1]: the “OX2R Kb/OX1R Kb” value is listed as 404 and the Kb is 48 pM.

On to `CCN(C(=O)c1cnc(C)nc1-c1ccccc1)[C@@H](C)CNc1ncc(C(F)(F)F)cn1` [Example 17], for which the “OX2R Kb/OX1R Kb” value is recorded as 2500 and the Kb was determined as 21.6 pM.
